Test results: US20250230193A1, “CYCLIC COMPOUND HAVING SELECTIVE KRAS INHIBITORY EFFECT ON HRAS AND NRAS” (CHUGAI SEIYAKU KABUSHIKI KAISHA, priority 2022, published 2025)
Where a SMILES comes first, the peptide text is derived from it. Bridges are numbered along the chain shown (N, C = ends). [ ]: non-standard residue; d: D form. The star is where a group is joined. hPhe(3-Cl-4-CF3) = N[C@@H](CCc1ccc(C(F)(F)F)c(Cl)c1)C(=O)O; NPrPhe(4-CF3) = CCCN[C@@H](Cc1ccc(C(F)(F)F)cc1)C(=O)O; Morpholine(3S-CO) = O=C(O)[C@@H]1COCCN1; NMeGly(cPent) = CN[C@H](C(=O)O)C1CCCC1; NMeD = CN[C@@H](CC(=O)O)C(=O)O; Ac4c(3-oxa) = NC1(C(=O)O)COC1; NMeL = CN[C@@H](CC(C)C)C(=O)O; Morpholide = C1CN(*)CCO1; Ac5c = NC1(C(=O)O)CCCC1; NEtG = CCNCC(=O)O; Sar = CNCC(=O)O

Tests used:
[1] = target: GDP-bound NRAS wild-type protein (Homo sapiens, UniProt P01111); assay: Binding to NRAS by surface plasmon resonance (SPR), Single Cycle Kinetics
[2] = target: GDP-bound HRAS wild-type protein (Homo sapiens, UniProt P01112); assay: Binding to HRAS by surface plasmon resonance (SPR), Single Cycle Kinetics
[3] = KD ratio NRAS/KRAS, class symbols
[4] = KD ratio HRAS/KRAS, class symbols
[5] = GDP-bound NRAS wild-type vs GDP-bound KRAS wild-type, SPR
[6] = GDP-bound HRAS wild-type vs GDP-bound KRAS wild-type, SPR

Chain of GDP-bound NRAS wild-type protein (P01111 whole entry): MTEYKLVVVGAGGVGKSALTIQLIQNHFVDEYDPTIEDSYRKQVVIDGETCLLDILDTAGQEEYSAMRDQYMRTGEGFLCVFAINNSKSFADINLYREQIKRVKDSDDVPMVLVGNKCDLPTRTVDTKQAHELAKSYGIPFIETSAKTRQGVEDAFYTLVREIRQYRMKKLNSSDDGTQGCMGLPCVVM
Chain of GDP-bound HRAS wild-type protein (P01112 whole entry): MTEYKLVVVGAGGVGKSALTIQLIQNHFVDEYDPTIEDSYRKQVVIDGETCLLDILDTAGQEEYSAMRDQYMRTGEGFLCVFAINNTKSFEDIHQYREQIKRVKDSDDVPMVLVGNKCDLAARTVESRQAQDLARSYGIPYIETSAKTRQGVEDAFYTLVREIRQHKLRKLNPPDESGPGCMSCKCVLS

## CC[C@H](C)[C@@H]1NC(=O)[C@H](COC)N(C)C(=O)C[C@@H](C(=O)N(C)C)N(C)C(=O)[C@H](C2CCCCC2)N(C)C(=O)C2(CC(C)(C)C2)NC(=O)[C@@H]2C[C@@H](OC3CCCC3)CN2C(=O)[C@H](CCc2cc(F)c(C(F)(F)F)c(F)c2)NC(=O)CN(C)C(=O)[C@H](Cc2ccc(C(F)(F)F)cc2)N2CC/C=C\C[C@@H](C2=O)N(C)C(=O)CN(C)C1=O [PP2656]
[1]; [3]
  NRAS/KRAS (ratio of KD value with respect to GDP-bound NRAS wild-type protein to KD value with respect to KRAS): A (a compound having 10 or more and less than 20 is denoted as A)
[2]; [4]
  HRAS/KRAS (ratio of KD value with respect to GDP-bound HRAS wild-type protein to KD value with respect to KRAS): B (a compound having 3 or more and less than 10 is denoted as B)

## CCO[C@@H]1C[C@H]2C(=O)NC3(CCC3)C(=O)N(C)[C@@H](C3CCCC3)C(=O)N(C)[C@H](C(=O)N(C)C)CC(=O)N(C)[C@@H](CC3CCCC3)C(=O)N[C@@H]([C@@H](C)CC)C(=O)N(C)CC(=O)N(C)[C@H]3C/C=C\CCN(C3=O)[C@@H](Cc3ccc(C)cc3)C(=O)N(C)CC(=O)N[C@@H](CCc3cc(C)c(C(F)F)c(C)c3)C(=O)N2C1 [PP2675]
[1]; [3]
  NRAS/KRAS (ratio of KD value with respect to GDP-bound NRAS wild-type protein to KD value with respect to KRAS): A (a compound having 10 or more and less than 20 is denoted as A)
[2]; [4]
  HRAS/KRAS (ratio of KD value with respect to GDP-bound HRAS wild-type protein to KD value with respect to KRAS): A (a compound having 10 or more and less than 20 is denoted as A)

## CCCN1C(=O)CN(C)C(=O)CN(C)C(=O)[C@H]([C@@H](C)CC)NC(=O)[C@H](CC(C)C)N(C)C(=O)C[C@@H](C(=O)N2CCOCC2)N(C)C(=O)[C@H](C2CCCC2)N(C)C(=O)C2(COC2)NC(=O)[C@@H]2CCCN2C(=O)[C@H](CCc2ccc(C(F)(F)F)c(Cl)c2)NC(=O)CN(C)C(=O)[C@@H]1Cc1ccc(C(F)(F)F)cc1 [PP1922] ([NMeL]I[Sar][Sar][NPrPhe(4-CF3)][Sar][hPhe(3-Cl-4-CF3)]P[Ac4c(3-oxa)][NMeGly(cPent)][NMeD]-Morpholide; lactam N-11)
[1]; [5]
  NRAS/KRAS (ratio of KD value for NRAS to KD value for KRAS): B (a compound having 3 or more and less than 10 is denoted as B)
[2]; [6]
  HRAS/KRAS (ratio of KD value for HRAS to KD value for KRAS): C (A compound having a KD ratio of 0.1 or more and less than 3 is denoted as C)

## CCCN1C(=O)CN(C)C(=O)CN(CC)C(=O)[C@H]([C@@H](C)CC)NC(=O)[C@H](CC(C)C)N(C)C(=O)C[C@@H](C(=O)N2CCOCC2)N(C)C(=O)[C@H](C2CCCC2)N(C)C(=O)C2(CCCC2)NC(=O)[C@@H]2COCCN2C(=O)[C@H](CCc2ccc(C(F)(F)F)c(Cl)c2)NC(=O)CN(C)C(=O)[C@@H]1Cc1ccc(C(F)(F)F)cc1 [PP0299] ([NMeL]I[NEtG][Sar][NPrPhe(4-CF3)][Sar][hPhe(3-Cl-4-CF3)][Morpholine(3S-CO)][Ac5c][NMeGly(cPent)][NMeD]-Morpholide; lactam N-11)
[1]; KD ratio NRAS/KRAS, SPR
  NRAS/KRAS (ratio of KD for GDP-bound NRAS wild-type to KD for KRAS): B (a compound having 3 or more and less than 10 is denoted as B)
[2]; KD ratio HRAS/KRAS, SPR
  HRAS/KRAS (ratio of KD for GDP-bound HRAS wild-type to KD for KRAS): B (a compound having 3 or more and less than 10 is denoted as B)

## CC[C@H](C)[C@@H]1NC(=O)[C@H](COC)N(C)C(=O)C[C@@H](C(=O)N(CC)CC)N(C)C(=O)[C@H](C2CCCC2)N(C)C(=O)C2(CC(C)(C)C2)NC(=O)[C@@H]2C[C@H](C)CN2C(=O)[C@H](CCc2ccc(C(F)(F)F)c(Cl)c2)NC(=O)CN(C)C(=O)[C@H](Cc2ccc(C)cc2)N2CC/C=C\C[C@@H](C2=O)N(C)C(=O)CN(C)C1=O [PP2399]
[1]; SPR, GDP-bound NRAS wild-type vs GDP-bound KRAS wild-type
  NRAS/KRAS (ratio of KD value with respect to NRAS to KD value with respect to KRAS): AA (a compound having 20 or more is denoted as AA)
[2]; SPR, GDP-bound HRAS wild-type vs GDP-bound KRAS wild-type
  HRAS/KRAS (ratio of KD value with respect to HRAS to KD value with respect to KRAS): A (a compound having 10 or more and less than 20 is denoted as A)

## CC[C@H](C)[C@@H]1NC(=O)[C@H](CC(C)C)N(CC)C(=O)C[C@@H](C(=O)N2CCOCC2)N(C)C(=O)[C@H](C2CCCC2)N(C)C(=O)C2(CCCC2)NC(=O)[C@@H]2CCCN2C(=O)[C@H](CCc2cc(F)c(C(F)(F)F)c(F)c2)NC(=O)CN(C)C(=O)[C@H](Cc2ccc(C(F)(F)F)cc2)N2CCCCC[C@@H](C2=O)N(C)C(=O)CN(C)C1=O [PP0513]
[1]; KD ratio NRAS/KRAS, SPR
  NRAS/KRAS (ratio of KD value with respect to GDP-bound NRAS wild-type protein to KD value with respect to KRAS): B (a compound having 3 or more and less than 10 is denoted as B)
[2]; KD ratio HRAS/KRAS, SPR
  HRAS/KRAS (ratio of KD value with respect to GDP-bound HRAS wild-type protein to KD value with respect to KRAS): B (a compound having 3 or more and less than 10 is denoted as B)

## CCO[C@@H]1C[C@H]2C(=O)NC3(CCC3)C(=O)N(C)[C@@H](C3CCCC3)C(=O)N(C)[C@H](C(=O)N(CC)CC)CC(=O)N(C)[C@@H](CC(C)C)C(=O)N[C@@H]([C@@H](C)CC)C(=O)N(C)CC(=O)N(C)[C@H]3C/C=C\CCN(C3=O)[C@@H](Cc3ccc(C)cc3)C(=O)N(C)CC(=O)N[C@@H](CCc3ccc(C(F)(F)F)c(OC)c3)C(=O)N2C1 [PP1887]
[1]; [5]
  NRAS/KRAS (ratio of KD value for NRAS to KD value for KRAS): A (a compound having 10 or more and less than 20 is denoted as A)
[2]; [6]
  HRAS/KRAS (ratio of KD value for HRAS to KD value for KRAS): B (a compound having 3 or more and less than 10 is denoted as B)
